Results from ChEMBL document CHEMBL1141045, “Cyclic sulfamide gamma-secretase inhibitors” (Bioorg Med Chem Lett, 2005).

Key:
Gamma-secretase = assay: Inhibitory concentration against gamma-secretase in whole cell SH-SY5Y assay; assay type: protein-complex assay
[1] = (§1) AUC after administration of 30 (mpk) to rat through oral route; assay type: ADME, organism-based, Plasma; settings: plasma, 30 mg/kg
[2] = AUC after administration of 4 (mpk) to rat through oral route; assay type: ADME, organism-based; settings: plasma, 4 mg/kg
[3] = AUC after administration of 1 (mpk) to rat through oral route; assay type: ADME, organism-based; settings: plasma, 1 mg/kg
Rattus norvegicus = assay: as §1; assay type: ADME, organism-based, Plasma; settings: in vivo, 30 mg/kg

SMILES	IC50 (Gamma-secretase) [µM]	further results
O=S1(=O)N[C@@]2(CN1CC(F)(F)F)[C@@H]1CC[C@H]2Cc2ccc(/C=C/CN3CCCCC3)cc2C1	0.25	
CC1CCN(C/C=C/c2ccc3c(c2)C[C@H]2CC[C@@H](C3)[C@]23CN(CC(F)(F)F)S(=O)(=O)N3)CC1	0.018	
O=S(=O)(NC1[C@@H]2CC[C@H]1Cc1ccc(/C=C/CN3CCOCC3)cc1C2)c1ccc(Cl)s1 (some centres not stated)	0.001	AUC [2]: 0.38 µM·h
O=S(=O)(N[C@H]1[C@@H]2CC[C@H]1Cc1ccccc1C2)NC(F)(F)F	0.134	
CCNS(=O)(=O)N[C@H]1[C@@H]2CC[C@H]1Cc1ccccc1C2	0.394	
CCN1C[C@]2(NS1(=O)=O)[C@@H]1CC[C@H]2Cc2ccccc2C1	0.429	
CCCN1C[C@]2(NS1(=O)=O)[C@@H]1CC[C@H]2Cc2ccc(/C=C/CN3CCOCC3)cc2C1	0.019	AUC [3]: 1.19 µM·h
CCCN1C[C@]2(NS1(=O)=O)[C@@H]1CC[C@H]2Cc2ccccc2C1	0.138	AUC [3]: 0.1 µM·h
CCCN1C[C@]2(NS1(=O)=O)[C@@H]1CC[C@H]2Cc2ccc(/C=C/CN3CCC(C(F)(F)F)CC3)cc2C1	0.002	
CCCCN1C[C@]2(NS1(=O)=O)[C@@H]1CC[C@H]2Cc2ccccc2C1	0.122	
CCCCNS(=O)(=O)N[C@H]1[C@@H]2CC[C@H]1Cc1ccccc1C2	0.766	
O=S(=O)(N[C@H]1[C@@H]2CC[C@H]1Cc1ccccc1C2)c1ccc(Cl)s1		AUC (Rattus norvegicus): 0.01 uMh

More lines, in order of falling IC50 (Gamma-secretase), values ahead:

IC50 (Gamma-secretase) [µM]	SMILES	further results
0.132	CCCNS(=O)(=O)N[C@H]1[C@@H]2CC[C@H]1Cc1ccccc1C2	AUC [1]: 0.6 µM·h
0.021	CN1CCN(C/C=C/c2ccc3c(c2)C[C@H]2CC[C@@H](C3)[C@]23CN(CC(F)(F)F)S(=O)(=O)N3)CC1=O	
0.017	O=S1(=O)N[C@@]2(CN1C(F)(F)F)[C@@H]1CC[C@H]2Cc2ccccc2C1	
0.004	CC(=O)N1CCN(C/C=C/c2ccc3c(c2)C[C@H]2CC[C@@H](C3)[C@]23CN(CC(F)(F)F)S(=O)(=O)N3)CC1	
0.0034	O=S1(=O)N[C@@]2(CN1CC(F)(F)F)[C@@H]1CC[C@H]2Cc2ccc(/C=C/CN3CCOCC3)cc2C1	
0.0005	O=S1(=O)N[C@@]2(CN1CC(F)(F)F)[C@@H]1CC[C@H]2Cc2ccc(/C=C/CN3CCC(C(F)(F)F)CC3)cc2C1	
